Measurements published in patent US6194173A, “Binding proteins for phosphoinositides, GRP1 or general receptor 1 for phophoinositide” (priority 1999, dated 2001).
“Also recorded” adds a separate entry of the source.

Tests used:
[1] = system: GRP Sec7 homology domain; experiment: Effect of phosphoinositides on ARF1 exchange catalyzed by the GRP Sec7 domain; assay type: biochemical, mouse; details: 25 μM PtdIns(3,4,5)P3
[2] = target: T1, GRP (Mus musculus, UniProt O08967); experiment: Effect of phosphoinositides on GRP-catalyzed ARF1 guanine nucleotide exchange; assay type: biochemical; details: for stimulation of ARF1 exchange activity in the presence of GRP: 25 μM lipid, 0.15 μM GRP
T1 construct: GST (N, cleaved yes); made in house; host or cells: GRP from pGEX-4T; ARF1 from baculovirus-infected Sf-9 cells
T1 sequence (O08967 1-399): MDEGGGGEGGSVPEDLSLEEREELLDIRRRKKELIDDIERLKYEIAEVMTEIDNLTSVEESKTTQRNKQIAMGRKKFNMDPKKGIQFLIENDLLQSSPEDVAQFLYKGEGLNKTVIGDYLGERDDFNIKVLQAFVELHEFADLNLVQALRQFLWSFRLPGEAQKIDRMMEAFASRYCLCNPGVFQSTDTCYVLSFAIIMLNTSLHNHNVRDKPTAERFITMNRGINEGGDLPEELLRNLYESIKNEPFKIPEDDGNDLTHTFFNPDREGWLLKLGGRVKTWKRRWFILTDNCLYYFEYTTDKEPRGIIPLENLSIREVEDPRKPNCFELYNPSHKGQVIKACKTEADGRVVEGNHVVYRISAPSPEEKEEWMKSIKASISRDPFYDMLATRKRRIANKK

[3] = target: T2, proteins encoded by both brain and adipocyte cDNA clones (GRP) (Mus musculus, UniProt O08967); experiment: Binding of 32P-labeled phosphoinositides to protein of isolated cDNA clones on nitrocellulose filters (library screen); details: library screening conditions
T2 construct: lack four residues
T2 sequence (O08967 5-399): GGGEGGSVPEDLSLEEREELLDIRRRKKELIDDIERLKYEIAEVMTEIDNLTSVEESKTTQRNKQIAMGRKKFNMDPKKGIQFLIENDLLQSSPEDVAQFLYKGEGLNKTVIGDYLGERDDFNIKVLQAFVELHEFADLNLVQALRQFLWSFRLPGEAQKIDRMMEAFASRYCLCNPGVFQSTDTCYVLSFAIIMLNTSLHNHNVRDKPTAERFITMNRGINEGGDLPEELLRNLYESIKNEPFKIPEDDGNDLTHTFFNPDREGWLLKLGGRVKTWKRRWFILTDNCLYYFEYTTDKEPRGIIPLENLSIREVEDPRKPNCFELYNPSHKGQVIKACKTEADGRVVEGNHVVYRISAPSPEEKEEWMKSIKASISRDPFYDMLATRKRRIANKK

In the case of “Phosphatidylinositol (3,4,5)-Trisphosphate [PtdIns(3,4,5)P3]”, the “effect on ARF exchange activity catalyzed by the GRP Sec7 homology domain” value [1] is reported as “no effect”, the “maximal activation of GRP-catalyzed ARF1 exchange” value ([2]; 0.1 μM GRP1, 40 minutes) is reported as 3-4 fold and the EC50 ([2]; 0.1 μM GRP1, 40 minutes, read-out: half maximal stimulation of GRP-catalyzed ARF1 [^35 S]GTPγS binding) is reported as about 1000 nM. For the same substance, the “stimulation of ARF1 exchange activity in the presence of GRP” value ([2]; 0.05% cholate and 0.05% CHAPS (low negative charge)) was “selectively stimulated; also recorded: Selectivity”, the “stimulation of ARF1 exchange activity in the presence of GRP” value ([2]; 0.1% cholate (high negative charge)) was “stimulated” and the “binding of labeled phosphoinositide to the cDNA clone protein” value [3] was “bound”.
